With `O=C(O)Cc1ccc([N+](=O)[O-])cc1` the solubility (mole fraction) (in DMAc, 283.15 K) was 0.0895, the solubility (mole fraction) (in DMAc, 288.15 K) was 0.1 and the solubility (mole fraction) (in DMAc, 293.15 K) was 0.114. For the same compound, the solubility (mole fraction) (in DMAc, 298.15 K) was 0.131, the solubility (mole fraction) (in DMAc, 303.15 K) was 0.149 and the solubility (mole fraction) (in DMAc, 308.15 K) was 0.169. The solubility (mole fraction) (in DMAc, 313.15 K) was 0.191, the solubility (mole fraction) (in DMAc, 318.15 K) was 0.216 and the solubility (mole fraction) (in DMAc, 323.15 K) was 0.24. For the same compound, the solubility (mole fraction) (in DMAc, 328.15 K) was 0.271, the solubility (mole fraction) (in DMF, 283.15 K) was 0.161 and the solubility (mole fraction) (in DMF, 288.15 K) was 0.178. The solubility (mole fraction) (in DMF, 293.15 K) was 0.2, the solubility (mole fraction) (in DMF, 298.15 K) was 0.225 and the solubility (mole fraction) (in DMF, 303.15 K) was 0.251. For the same compound, the solubility (mole fraction) (in DMF, 308.15 K) was 0.28, the solubility (mole fraction) (in DMF, 313.15 K) was 0.311 and the solubility (mole fraction) (in DMF, 318.15 K) was 0.342. The solubility (mole fraction) (in DMF, 323.15 K) was 0.377, the solubility (mole fraction) (in DMF, 328.15 K) was 0.417 and the solubility (mole fraction) (in acetonitrile, 283.15 K) was 0.0193. The solubility (mole fraction) (in acetonitrile, 288.15 K) was 0.0223, the solubility (mole fraction) (in acetonitrile, 293.15 K) was 0.0266 and the solubility (mole fraction) (in acetonitrile, 298.15 K) was 0.0312. The solubility (mole fraction) (in acetonitrile, 303.15 K) was 0.0375, the solubility (mole fraction) (in acetonitrile, 308.15 K) was 0.0449 and the solubility (mole fraction) (in acetonitrile, 313.15 K) was 0.0535. For the same compound, the solubility (mole fraction) (in acetonitrile, 318.15 K) was 0.0639, the solubility (mole fraction) (in acetonitrile, 323.15 K) was 0.0761 and the solubility (mole fraction) (in acetonitrile, 328.15 K) was 0.0918. The solubility (mole fraction) (in cyclohexane, 283.15 K) was 1.2e-05, the solubility (mole fraction) (in cyclohexane, 288.15 K) was 1.69e-05 and the solubility (mole fraction) (in cyclohexane, 293.15 K) was 2.3e-05. For the same compound, the solubility (mole fraction) (in cyclohexane, 298.15 K) was 3.11e-05, the solubility (mole fraction) (in cyclohexane, 303.15 K) was 4.12e-05 and the solubility (mole fraction) (in cyclohexane, 308.15 K) was 5.45e-05. For the same compound, the solubility (mole fraction) (in cyclohexane, 313.15 K) was 7.11e-05, the solubility (mole fraction) (in cyclohexane, 318.15 K) was 9e-05 and the solubility (mole fraction) (in cyclohexane, 323.15 K) was 0.000113. For the same compound, the solubility (mole fraction) (in cyclohexane, 328.15 K) was 0.00014, the solubility (mole fraction) (in ethanol, 283.15 K) was 0.0758 and the solubility (mole fraction) (in ethanol, 288.15 K) was 0.0849. The solubility (mole fraction) (in ethanol, 293.15 K) was 0.0979, the solubility (mole fraction) (in ethanol, 298.15 K) was 0.111 and the solubility (mole fraction) (in ethanol, 303.15 K) was 0.128. It also gave a solubility (mole fraction) (in ethanol, 308.15 K) of 0.148, a solubility (mole fraction) (in ethanol, 313.15 K) of 0.17 and a solubility (mole fraction) (in ethanol, 318.15 K) of 0.196. The solubility (mole fraction) (in ethanol, 323.15 K) was 0.223, the solubility (mole fraction) (in ethanol, 328.15 K) was 0.254 and the solubility (mole fraction) (in ethyl acetate, 283.15 K) was 0.0309. It also gave a solubility (mole fraction) (in ethyl acetate, 288.15 K) of 0.0352, a solubility (mole fraction) (in ethyl acetate, 293.15 K) of 0.041 and a solubility (mole fraction) (in ethyl acetate, 298.15 K) of 0.0487. For the same compound, the solubility (mole fraction) (in ethyl acetate, 303.15 K) was 0.0576, the solubility (mole fraction) (in ethyl acetate, 308.15 K) was 0.0694 and the solubility (mole fraction) (in ethyl acetate, 313.15 K) was 0.0823. For the same compound, the solubility (mole fraction) (in ethyl acetate, 318.15 K) was 0.098, the solubility (mole fraction) (in ethyl acetate, 323.15 K) was 0.116 and the solubility (mole fraction) (in ethyl acetate, 328.15 K) was 0.137. It also gave a solubility (mole fraction) (in ethylene glycol, 283.15 K) of 0.0168, a solubility (mole fraction) (in ethylene glycol, 288.15 K) of 0.0185 and a solubility (mole fraction) (in ethylene glycol, 293.15 K) of 0.0213. For the same compound, the solubility (mole fraction) (in ethylene glycol, 298.15 K) was 0.0254, the solubility (mole fraction) (in ethylene glycol, 303.15 K) was 0.0301 and the solubility (mole fraction) (in ethylene glycol, 308.15 K) was 0.0361. The solubility (mole fraction) (in ethylene glycol, 313.15 K) was 0.0428, the solubility (mole fraction) (in ethylene glycol, 318.15 K) was 0.0503 and the solubility (mole fraction) (in ethylene glycol, 323.15 K) was 0.0596. For the same compound, the solubility (mole fraction) (in ethylene glycol, 328.15 K) was 0.0723, the solubility (mole fraction) (in isobutanol, 283.15 K) was 0.025 and the solubility (mole fraction) (in isobutanol, 288.15 K) was 0.0282. It also gave a solubility (mole fraction) (in isobutanol, 293.15 K) of 0.0323, a solubility (mole fraction) (in isobutanol, 298.15 K) of 0.0389 and a solubility (mole fraction) (in isobutanol, 303.15 K) of 0.0464. For the same compound, the solubility (mole fraction) (in isobutanol, 308.15 K) was 0.0554, the solubility (mole fraction) (in isobutanol, 313.15 K) was 0.0658 and the solubility (mole fraction) (in isobutanol, 318.15 K) was 0.0776. For the same compound, the solubility (mole fraction) (in isobutanol, 323.15 K) was 0.0917, the solubility (mole fraction) (in isobutanol, 328.15 K) was 0.11 and the solubility (mole fraction) (in isopropanol, 283.15 K) was 0.028. For the same compound, the solubility (mole fraction) (in isopropanol, 288.15 K) was 0.031, the solubility (mole fraction) (in isopropanol, 293.15 K) was 0.0373 and the solubility (mole fraction) (in isopropanol, 298.15 K) was 0.0455. For the same compound, the solubility (mole fraction) (in isopropanol, 303.15 K) was 0.0542, the solubility (mole fraction) (in isopropanol, 308.15 K) was 0.065 and the solubility (mole fraction) (in isopropanol, 313.15 K) was 0.0768. The solubility (mole fraction) (in isopropanol, 318.15 K) was 0.0914, the solubility (mole fraction) (in isopropanol, 323.15 K) was 0.109 and the solubility (mole fraction) (in isopropanol, 328.15 K) was 0.131. For the same compound, the solubility (mole fraction) (in methanol, 283.15 K) was 0.125, the solubility (mole fraction) (in methanol, 288.15 K) was 0.137 and the solubility (mole fraction) (in methanol, 293.15 K) was 0.155. For the same compound, the solubility (mole fraction) (in methanol, 298.15 K) was 0.174, the solubility (mole fraction) (in methanol, 303.15 K) was 0.195 and the solubility (mole fraction) (in methanol, 308.15 K) was 0.218. For the same compound, the solubility (mole fraction) (in methanol, 313.15 K) was 0.245, the solubility (mole fraction) (in methanol, 318.15 K) was 0.274 and the solubility (mole fraction) (in methanol, 323.15 K) was 0.305. For the same compound, the solubility (mole fraction) (in methanol, 328.15 K) was 0.341, the solubility (mole fraction) (in n-butanol, 283.15 K) was 0.0498 and the solubility (mole fraction) (in n-butanol, 288.15 K) was 0.0564. For the same compound, the solubility (mole fraction) (in n-butanol, 293.15 K) was 0.0653, the solubility (mole fraction) (in n-butanol, 298.15 K) was 0.0758 and the solubility (mole fraction) (in n-butanol, 303.15 K) was 0.0877. For the same compound, the solubility (mole fraction) (in n-butanol, 308.15 K) was 0.101, the solubility (mole fraction) (in n-butanol, 313.15 K) was 0.117 and the solubility (mole fraction) (in n-butanol, 318.15 K) was 0.135. It also gave a solubility (mole fraction) (in n-butanol, 323.15 K) of 0.156, a solubility (mole fraction) (in n-butanol, 328.15 K) of 0.178 and a solubility (mole fraction) (in n-propanol, 283.15 K) of 0.0518. It also gave a solubility (mole fraction) (in n-propanol, 288.15 K) of 0.0589, a solubility (mole fraction) (in n-propanol, 293.15 K) of 0.0683 and a solubility (mole fraction) (in n-propanol, 298.15 K) of 0.0784. The solubility (mole fraction) (in n-propanol, 303.15 K) was 0.0916, the solubility (mole fraction) (in n-propanol, 308.15 K) was 0.106 and the solubility (mole fraction) (in n-propanol, 313.15 K) was 0.124. The solubility (mole fraction) (in n-propanol, 318.15 K) was 0.145, the solubility (mole fraction) (in n-propanol, 323.15 K) was 0.168 and the solubility (mole fraction) (in n-propanol, 328.15 K) was 0.193. For the same compound, the solubility (mole fraction) (in water, 283.15 K) was 0.000141, the solubility (mole fraction) (in water, 288.15 K) was 0.00017 and the solubility (mole fraction) (in water, 293.15 K) was 0.000209. It also gave a solubility (mole fraction) (in water, 298.15 K) of 0.000264, a solubility (mole fraction) (in water, 303.15 K) of 0.000336 and a solubility (mole fraction) (in water, 308.15 K) of 0.000422. It also gave a solubility (mole fraction) (in water, 313.15 K) of 0.000528, a solubility (mole fraction) (in water, 318.15 K) of 0.000663 and a solubility (mole fraction) (in water, 323.15 K) of 0.000816. It also gave a solubility (mole fraction) (in water, 328.15 K) of 0.00101.
